# Measurements published in the supplement of paper PMC10307832.
# Assays:
# Experiment in all cases: relative viability (nuclei count vs DMSO), 5 days (fraction); higher = more cells survive
# RU-SKI 43 + Luminespib = compound: CC[C@@H](C)CNCC(=O)N1CCC2=C([C@@H]1COC3=CC=CC(=C3)C)C=CS2 [RU-SKI 43] + CCNC(=O)c1noc(-c2cc(C(C)C)c(O)cc2O)c1-c1ccc(CN2CCOCC2)cc1 [Luminespib] (partner 0.01 µM)
# Method in brief: (§1)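 Five library-drug doses in √10 steps were combined with a fixed anchor-drug dose, or a single drug was given alone, by pin tool to lung cancer cell lines in 1536-well plates the day after seeding. Nuclei were stained and counted after 5 days. Relative viability is the nuclei count in treated wells over that in vehicle wells, taken as the median of duplicate plates.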
# RU-SKI 43 + Crizotinib = compound: CC[C@@H](C)CNCC(=O)N1CCC2=C([C@@H]1COC3=CC=CC(=C3)C)C=CS2 [RU-SKI 43] + C[C@@H](Oc1cc(-c2cnn(C3CCNCC3)c2)cnc1N)c1c(Cl)ccc(F)c1Cl [Crizotinib] (partner 1 µM)
# Method in brief: as §1
# RU-SKI 43 + AZD7762 = compound: CC[C@@H](C)CNCC(=O)N1CCC2=C([C@@H]1COC3=CC=CC(=C3)C)C=CS2 [RU-SKI 43] + NC(=O)Nc1cc(-c2cccc(F)c2)sc1C(=O)N[C@H]1CCCNC1 [AZD7762] (partner 0.2 µM)
# Method in brief: as §1
# Irinotecan + Lapatinib = compound: CCc1c2c(nc3ccc(OC(=O)N4CCC(N5CCCCC5)CC4)cc13)-c1cc3c(c(=O)n1C2)COC(=O)[C@]3(O)CC [Irinotecan] + CS(=O)(=O)CCNCc1ccc(-c2ccc3ncnc(Nc4ccc(OCc5cccc(F)c5)c(Cl)c4)c3c2)o1 [Lapatinib] (partner 2 µM)
# Method in brief: as §1
Cell Line,relative viability (RU-SKI 43 + Luminespib; first compound 0.1 µM),relative viability (RU-SKI 43 + Luminespib; first compound 0.3162 µM),relative viability (RU-SKI 43 + Luminespib; first compound 1 µM),relative viability (RU-SKI 43 + Luminespib; first compound 3.162 µM),relative viability (RU-SKI 43 + Luminespib; first compound 10 µM),relative viability (RU-SKI 43 + Crizotinib; first compound 0.1 µM),relative viability (RU-SKI 43 + Crizotinib; first compound 0.3162 µM),relative viability (RU-SKI 43 + Crizotinib; first compound 1 µM),relative viability (RU-SKI 43 + Crizotinib; first compound 3.162 µM),relative viability (RU-SKI 43 + Crizotinib; first compound 10 µM),relative viability (RU-SKI 43 + AZD7762; first compound 0.1 µM),relative viability (RU-SKI 43 + AZD7762; first compound 0.3162 µM),relative viability (RU-SKI 43 + AZD7762; first compound 1 µM),relative viability (RU-SKI 43 + AZD7762; first compound 3.162 µM),relative viability (RU-SKI 43 + AZD7762; first compound 10 µM),relative viability (Irinotecan + Lapatinib; first compound 0.6325 µM),relative viability (Irinotecan + Lapatinib; first compound 2 µM),relative viability (Irinotecan + Lapatinib; first compound 6.325 µM),relative viability (Irinotecan + Lapatinib; first compound 20 µM)
NCI-H1993,0.714,0.813,0.982,1.02,0.825,0.839,0.882,0.84,0.945,0.758,0.677,0.775,0.807,0.712,0.688,0.802,0.76,0.671,0.458
NCI-H322M,0.858,0.932,0.877,0.884,0.727,1.19,1.04,0.941,0.979,0.733,0.57,0.561,0.474,0.624,0.465,0.585,0.654,0.328,0.363
